System: hospitalized patients with coronavirus disease 2019 (COVID-19)
Test: multicenter, randomized, double-blind, placebo-controlled Bayesian adaptive clinical trial for prevention and treatment of ARDS
Format: in vivo, human
Excerpt: This example describes use of 5-(3-chlorophenyl)-3-hydroxypyridine-2-carbonyl] amino} acetic acid (vadadustat) in a multicenter, randomized, double-blind, placebo-controlled Bayesian adaptive clinical for the prevention and treatment of acute respiratory distress syndrome (ARDS) in hospitalized patients with coronavirus disease 2019 (COVID-19).
Inclusion criteria may include any or all of the following: • 1. Men and women ≥18 years of age. • 2. Laboratory-confirmed diagnosis of COVID-19 by detection of SARS-CoV-2 RNA by RT-PCR (reverse transcription polymerase chain reaction) from any specimen respiratory. • 3. Admitted to the hospital. • 4. Within 24 hours of hospital admission. • 5. Oxygen saturation of hemoglobin by pulse oximetry at room air ≤94%. • 6. Participation in any other clinical trial for the treatment for COVID-19 is not allowed. • 7. Understands the procedures and requirements of treatment and provides written informed consent and authorization for protected health information disclosure.
• 1. Males with hemoglobin >17.5 g/dL or females >15.5 g/dL. • 2. Hypersensitivity to vadadustat or any of its excipients. • 3. Placed on mechanical ventilation before randomization. • 4. Hemoglobin above the gender specific upper limit of normal (ULN) at randomization. • 5. Aspartate aminotransferase (AST), alanine aminotransferase (ALT), or total bilirubin >2.0×ULN at randomization. • 6. Patients who have erythrocytosis or polycethemia vera. • 7. Patients receiving any of the following medications: sulfasalazine or other BCRP substrates, probenecid or other UGT and OAT1/3 inhibitors. • 8. Women who are pregnant or breastfeeding, or positive pregnancy test before randomization. • 9. Patients on maintenance dialysis. • 10. Patients who have received a solid organ transplant. • 11. Patients who are prisoners.
Following screening, patients are randomized in a 1:1 ratio to either vadadustat 900 mg or placebo. Randomination is stratified by site, and MSOFA score at baseline (<4 and ≥4).
A subject may receive vadadustat (e.g., 900 mg vadadustat as 6 tablets once daily) for 14 days and without regard for meals at approximately the same time each day. Tablets can be crushed using a pill crusher and administered to an intubated patient through a nasogastric tube.
For example, the efficacy of vadadustat (e.g., 900 mg per day) for the prevention and treatment of ARDS among COVID-19 patients may be measured by ≥1 point deterioration on the NIAID ordinal scale for clinical improvement at day seven or day 14 of treatment.
Efficacy may also be assessed according to any of the following (including any combination thereof): • 1. The proportion of patients at day 14 who are dead (8) or hospitalized, on invasive mechanical ventilation or ECMO (7) or hospitalized, on non-invasive ventilation or high flow oxygen devices (6) on the NIAID-OS. • 2. Proportions of patients with a score of 0 at 14 days on the MSOFA (Modified Sequential Organ Failure Assessment) scale:
• 3. Average MSOFA scores at day 7 and day 14. • 4. Proportion of patients who develop ARDS or experienced increased ARDS severity from baseline based on the Berlin scale. • 5. Ventilator-free survival at day 7 and day 14. • 6. Overall survival at day 7 and day 14. • 7. Proportion of patients with hypotension (MAP (Mean Arterial Pressure)<70 mm Hg or requirement for inotropes or vasopressors to maintain blood pressure) at day 7 and day 14. • 8. Proportion of patients with acute kidney injury at day 7 and day 14. • 9. Time to hospital discharge.

[1] = vadadustat 900 mg once daily for 14 days compared to placebo, day 7 and day 14

O=C(O)CNC(=O)c1ncc(-c2cccc(Cl)c2)cc1O [vadadustat, {[5-(3-chlorophenyl)-3-hydroxypyridine-2-carbonyl]amino}acetic acid]
proportion of patients who develop ARDS or experienced increased ARDS severity from baseline based on the Berlin scale (vadadustat 900 mg once daily for 14 days compared to placebo): a lower or a reduction | proportions of patients with a score of 0 at 14 days on the MSOFA (vadadustat 900 mg once daily for 14 days compared to placebo, 14 days): an increase | average MSOFA scores at day 7 and day 14 [1]: a lower or a reduction | number of overall survival at day 7 and day 14 [1]: a greater or an increase | number of ventilator-free survival at day 7 and day 14 [1]: a greater or an increase | proportion of patients with hypotension (MAP <70 mm Hg or requirement for inotropes or vasopressors to maintain blood pressure) at day 7 and day 14 [1]: a lower or a reduction | time to hospital discharge (vadadustat 900 mg once daily for 14 days versus placebo): a shorter or a reduction | proportion of patients with acute kidney injury at day 7 and day 14 (vadadustat 900 mg once daily for 14 days versus placebo, day 7 and day 14): a lower or a reduction

From patent US12629357B2, “Treatment of viral infections, of organ injury, and of related conditions using a HIF prolyl hydroxylase inhibitor or a HIF-alpha stabilizer” (Akebia Therapeutics, Inc., priority 2020, dated 2026)
